US20260285855A1, “HETEROARYL DERIVATIVES AS DDRS INHIBITORS” (CHIESI FARMACEUTICI S.P.A., priority 2023, published 2026)

Legend:
DDR1 = molecular target: T1, DDR1 (Homo sapiens, UniProt Q08345); assay: LanthaScreen Europium Kinase Binding assay, DDR1; settings: 5 nM DDR1, 20 nM Kinase Tracer 178, 1 h at rt; Ki from IC50 by Cheng-Prusoff; read-out: Ki DDR1
T1 construct: purchased Carna Biosciences
Protocol: (§1) DDR1 and DDR2 binding assays were performed using Life Technologies LanthaScreen™ Europium Kinase Binding assay. […] IC50 values were determined in GraphPad Prism 7.0 software, using 4 parameter model: log (inhibitor) vs. response. IC50 values were converted in Ki using the Cheng-Prusoff equation (Ki-IC50/(1+ [Tracer]/Kd).

DDR2 = molecular target: T2, DDR2 (Homo sapiens, UniProt Q16832); assay: LanthaScreen Europium Kinase Binding assay, DDR2; settings: 5 nM DDR2, 10 nM Kinase Tracer 178, 1 h at rt; Ki from IC50 by Cheng-Prusoff; read-out: Ki DDR2
T2 construct: purchased Life Technologies
T2 sequence (Q16832 22-855): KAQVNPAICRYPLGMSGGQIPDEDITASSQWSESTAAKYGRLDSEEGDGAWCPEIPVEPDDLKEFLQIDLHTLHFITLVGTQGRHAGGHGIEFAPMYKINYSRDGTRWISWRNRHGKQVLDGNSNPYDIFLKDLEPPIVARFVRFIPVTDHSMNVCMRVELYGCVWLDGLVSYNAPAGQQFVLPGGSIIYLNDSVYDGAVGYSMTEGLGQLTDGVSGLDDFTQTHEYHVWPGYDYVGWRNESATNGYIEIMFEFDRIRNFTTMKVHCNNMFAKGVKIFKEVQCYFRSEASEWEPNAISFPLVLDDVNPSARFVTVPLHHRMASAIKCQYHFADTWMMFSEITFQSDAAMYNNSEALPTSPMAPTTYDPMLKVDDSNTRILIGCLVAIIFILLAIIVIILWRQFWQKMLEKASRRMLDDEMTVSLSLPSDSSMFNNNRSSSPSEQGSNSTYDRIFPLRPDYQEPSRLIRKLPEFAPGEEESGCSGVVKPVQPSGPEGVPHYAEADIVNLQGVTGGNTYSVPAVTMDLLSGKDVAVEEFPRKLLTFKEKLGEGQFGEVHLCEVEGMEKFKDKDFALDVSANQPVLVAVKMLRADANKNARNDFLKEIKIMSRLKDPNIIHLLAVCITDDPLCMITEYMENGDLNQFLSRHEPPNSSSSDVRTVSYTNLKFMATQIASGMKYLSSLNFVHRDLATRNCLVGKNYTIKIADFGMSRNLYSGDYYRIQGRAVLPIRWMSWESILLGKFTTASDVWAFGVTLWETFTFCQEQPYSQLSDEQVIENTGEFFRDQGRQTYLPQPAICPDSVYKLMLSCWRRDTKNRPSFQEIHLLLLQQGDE
Protocol: as §1

T1 sequence (Q08345 19-913): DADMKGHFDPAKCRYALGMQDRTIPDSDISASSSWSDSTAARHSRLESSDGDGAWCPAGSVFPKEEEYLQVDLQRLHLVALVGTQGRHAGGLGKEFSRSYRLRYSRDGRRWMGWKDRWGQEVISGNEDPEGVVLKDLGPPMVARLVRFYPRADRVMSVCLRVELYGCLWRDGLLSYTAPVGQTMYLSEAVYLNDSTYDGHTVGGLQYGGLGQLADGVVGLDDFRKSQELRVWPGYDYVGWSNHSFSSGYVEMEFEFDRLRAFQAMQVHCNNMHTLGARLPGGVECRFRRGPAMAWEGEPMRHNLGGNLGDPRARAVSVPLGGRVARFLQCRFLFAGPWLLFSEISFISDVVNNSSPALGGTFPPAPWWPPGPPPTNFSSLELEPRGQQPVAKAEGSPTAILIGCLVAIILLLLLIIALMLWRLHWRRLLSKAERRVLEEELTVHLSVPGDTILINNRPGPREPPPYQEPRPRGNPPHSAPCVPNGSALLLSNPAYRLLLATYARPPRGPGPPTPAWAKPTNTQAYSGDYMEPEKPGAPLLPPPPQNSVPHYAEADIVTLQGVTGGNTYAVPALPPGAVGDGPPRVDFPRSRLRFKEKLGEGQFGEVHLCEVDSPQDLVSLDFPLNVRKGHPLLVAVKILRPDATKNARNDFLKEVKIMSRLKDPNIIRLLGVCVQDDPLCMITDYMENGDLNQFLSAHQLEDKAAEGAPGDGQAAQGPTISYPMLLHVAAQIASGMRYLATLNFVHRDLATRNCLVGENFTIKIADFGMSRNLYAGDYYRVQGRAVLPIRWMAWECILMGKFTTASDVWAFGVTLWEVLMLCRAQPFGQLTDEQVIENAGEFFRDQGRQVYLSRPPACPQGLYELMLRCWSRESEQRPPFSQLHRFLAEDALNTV

Ki (DDR1) [nM] | Ki (DDR2) [nM] | SMILES
< 5 | 5 to 25 | Cc1ccc(-n2nc(C(C)(C)C)cc2NC(=O)NC2CC3(C2)CN(C(=O)c2cnn4ccsc24)C3)cc1 [Example 80, 1-(3-(tert-butyl)-1-(p-tolyl)-1H-pyrazol-5-yl)-3-(2-(pyrazolo[5,1-b]thiazole-7-carbonyl)-2-azaspiro[3.3]heptan-6-yl)urea]
< 5 | 5 to 25 | COc1ccc(OC(F)(F)F)cc1NC(=O)N(C)C1CC2(C1)CN(C(=O)c1cnn3ccc(N4CCN(C)CC4)cc13)C2 [Example 81, 3-(2-methoxy-5-(trifluoromethoxy)phenyl)-1-methyl-1-(2-(5-(4-methylpiperazin-1-yl)pyrazolo[1,5-a]pyridine-3-carbonyl)-2-azaspiro[3.3]heptan-6-yl)urea]
< 5 | 5 to 25 | Cc1ccc(-n2nc(C(C)(C)C)cc2NC(=O)NC2CC3(C2)CN(C(=O)c2ncnc4ccsc24)C3)cc1 [Example 82, 1-(3-(tert-butyl)-1-(p-tolyl)-1H-pyrazol-5-yl)-3-(2-(thieno[3,2-d]pyrimidine-4-carbonyl)-2-azaspiro[3.3]heptan-6-yl)urea]
< 5 | 5 to 25 | COc1ncc(Cl)cc1NC(=O)NC1CC2(C1)CN(C(=O)c1cnn3ccn(C)c13)C2 [Example 83, 1-(5-chloro-2-methoxypyridin-3-yl)-3-(2-(1-methyl-1H-imidazo[1,2-b]pyrazole-7-carbonyl)-2-azaspiro[3.3]heptan-6-yl)urea]
< 5 | 5 to 25 | CN1CCN(c2ccn3ncc(C(=O)N4CC5(CC(NC(=O)Nc6cccc(C(F)(F)F)c6)C5)C4)c3c2)CC1 [Example 84, 1-(2-(5-(4-methylpiperazin-1-yl)pyrazolo[1,5-a]pyridine-3-carbonyl)-2-azaspiro[3.3]heptan-6-yl)-3-(3-(trifluoromethyl)phenyl)urea]
< 5 | 5 to 25 | CCN(C(=O)Nc1cccc(C(F)(F)F)c1)C1CC2(C1)CN(C(=O)c1cnn3ccn(C)c13)C2 [Example 85, 1-ethyl-1-(2-(1-methyl-1H-imidazo[1,2-b]pyrazole-7-carbonyl)-2-azaspiro[3.3]heptan-6-yl)-3-(3-(trifluoromethyl)phenyl)urea]
< 5 | 5 to 25 | CCN(C(=O)Nc1cc(F)cc(C(F)(F)F)c1)C1CC2(C1)CN(C(=O)c1cnn3ccn(C)c13)C2 [Example 86, 1-ethyl-3-(3-fluoro-5-(trifluoromethyl)phenyl)-1-(2-(1-methyl-1H-imidazo[1,2-b]pyrazole-7-carbonyl)-2-azaspiro[3.3]heptan-6-yl)urea]
< 5 | 5 to 25 | CN1CCN(c2ccn3ncc(C(=O)N4CC5(CC(NC(=O)Nc6cc(C#N)cc(C(F)(F)F)c6)C5)C4)c3c2)CC1 [Example 87, 1-(3-cyano-5-(trifluoromethyl)phenyl)-3-(2-(5-(4-methylpiperazin-1-yl)pyrazolo[1,5-a]pyridine-3-carbonyl)-2-azaspiro[3.3]heptan-6-yl)urea]
< 5 | 5 to 25 | O=C(Nc1cccc(C(F)(F)F)c1)NC1CC2(C1)CN(C(=O)c1ncnc3sccc13)C2 [Example 88, 1-(2-(thieno[2,3-d]pyrimidine-4-carbonyl)-2-azaspiro[3.3]heptan-6-yl)-3-(3-(trifluoromethyl)phenyl)urea]
< 5 | < 5 | O=C(Nc1cccc(OC(F)F)c1)NC1CC2(C1)CN(C(=O)c1ncnc3ccsc13)C2 [Example 89, 1-(3-(difluoromethoxy)phenyl)-3-(2-(thieno[3,2-d]pyrimidine-4-carbonyl)-2-azaspiro[3.3]heptan-6-yl)urea]
< 5 | < 5 | O=C(Nc1cc(C(F)(F)F)ccn1)NC1CC2(C1)CN(C(=O)c1ncnc3ccsc13)C2 [Example 90, 1-(2-(thieno[3,2-d]pyrimidine-4-carbonyl)-2-azaspiro[3.3]heptan-6-yl)-3-(4-(trifluoromethyl)pyridin-2-yl)urea]
< 5 | 5 to 25 | COc1ccc(OC(F)F)cc1NC(=O)NC1CC2(C1)CN(C(=O)c1cnn3ccn(C)c13)C2 [Example 91, 1-(5-(difluoromethoxy)-2-methoxyphenyl)-3-(2-(1-methyl-1H-imidazo[1,2-b]pyrazole-7-carbonyl)-2-azaspiro[3.3]heptan-6-yl)urea]
< 5 | < 5 | Cn1ccn2ncc(C(=O)N3CC4(CC(NC(=O)Nc5cc(OC(F)(F)F)ccc5Cl)C4)C3)c12 [Example 92, 1-(2-chloro-5-(trifluoromethoxy)phenyl)-3-(2-(1-methyl-1H-imidazo[1,2-b]pyrazole-7-carbonyl)-2-azaspiro[3.3]heptan-6-yl)urea]
< 5 | < 5 | O=C(Nc1cccc(C(F)(F)F)c1)NC1CC2(C1)CN(C(=O)c1ccnc3[nH]ncc13)C2 [Example 93, 1-(2-(1H-pyrazolo[3,4-b]pyridine-4-carbonyl)-2-azaspiro[3.3]heptan-6-yl)-3-(3-(trifluoromethyl)phenyl)urea]
< 5 | 5 to 25 | CN(C(=O)Nc1cc(CO)cc(C(F)(F)F)c1)C1CC2(C1)CN(C(=O)c1cnn3ccsc13)C2 [Example 94, 3-(3-(hydroxymethyl)-5-(trifluoromethyl)phenyl)-1-methyl-1-(2-(pyrazolo[5,1-b]thiazole-7-carbonyl)-2-azaspiro[3.3]heptan-6-yl)urea]
< 5 | < 5 | O=C(Nc1cccc(C(F)(F)F)c1)NC1CC2(C1)CN(C(=O)c1cnc3sccn13)C2 [Example 96, 1-(2-(imidazo[2,1-b]thiazole-5-carbonyl)-2-azaspiro[3.3]heptan-6-yl)-3-(3-(trifluoromethyl)phenyl)urea]
< 5 | < 5 | O=C(Nc1cc(OC(F)(F)F)ccn1)NC1CC2(C1)CN(C(=O)c1cnn3ccsc13)C2 [Example 97, 1-(2-(pyrazolo[5,1-b]thiazole-7-carbonyl)-2-azaspiro[3.3]heptan-6-yl)-3-(4-(trifluoromethoxy)pyridin-2-yl)urea]
< 5 | < 5 | CN(C(=O)Nc1cccc(S(F)(F)(F)(F)F)c1)C1CC2(C1)CN(C(=O)c1cnn3ccn(C)c13)C2 [Example 98, 1-methyl-1-(2-(1-methyl-1H-imidazo[1,2-b]pyrazole-7-carbonyl)-2-azaspiro[3.3]heptan-6-yl)-3-(3-(pentafluoro-16-sulfaneyl)phenyl)urea]
< 5 | < 5 | Cc1cc2ncnc(C(=O)N3CC4(CC(NC(=O)Nc5cccc(C(F)(F)F)c5)C4)C3)c2s1 [Example 99, 1-(2-(6-methylthieno[3,2-d]pyrimidine-4-carbonyl)-2-azaspiro[3.3]heptan-6-yl)-3-(3-(trifluoromethyl)phenyl)urea]
< 5 | 5 to 25 | Cn1nc(NC(=O)NC2CC3(C2)CN(C(=O)c2ncnc4ccsc24)C3)cc1C(C)(C)C [Example 100, 1-(5-(tert-butyl)-1-methyl-1H-pyrazol-3-yl)-3-(2-(thieno[3,2-d]pyrimidine-4-carbonyl)-2-azaspiro[3.3]heptan-6-yl)urea]
< 5 | < 5 | O=C(Nc1cc(OC(F)(F)F)ccn1)NC1CC2(C1)CN(C(=O)c1ncnc3ccsc13)C2 [Example 101, 1-(2-(thieno[3,2-d]pyrimidine-4-carbonyl)-2-azaspiro[3.3]heptan-6-yl)-3-(4-(trifluoromethoxy)pyridin-2-yl)urea]
< 5 | 5 to 25 | O=C(Nc1cccc(C(F)(F)F)c1)NC1CC2(C1)CN(C(=O)c1cnn3ccn(CCO)c13)C2 [Example 102, 1-(2-(1-(2-hydroxyethyl)-1H-imidazo[1,2-b]pyrazole-7-carbonyl)-2-azaspiro[3.3]heptan-6-yl)-3-(3-(trifluoromethyl)phenyl)urea]
< 5 | 5 to 25 | Cn1ccn2ncc(C(=O)N3CC4(CC(NC(=O)Nc5cc(C(F)(F)F)ncn5)C4)C3)c12 [Example 103, 1-(2-(1-methyl-1H-imidazo[1,2-b]pyrazole-7-carbonyl)-2-azaspiro[3.3]heptan-6-yl)-3-(6-(trifluoromethyl)pyrimidin-4-yl)urea]
< 5 | 5 to 25 | Cc1ccc(OC(F)(F)F)cc1NC(=O)N(C)C1CC2(C1)CN(C(=O)c1cnn3ccn(C)c13)C2 [Example 104, 1-methyl-1-(2-(1-methyl-1H-imidazo[1,2-b]pyrazole-7-carbonyl)-2-azaspiro[3.3]heptan-6-yl)-3-(2-methyl-5-(trifluoromethoxy)phenyl)urea]
